Test results: ChEMBL document CHEMBL5584340, “Discovery of Novel Antiosteoporosis Leads with Bone Resorption Inhibition and Anabolic Promotion through a Chemotype-Assembly Approach” (J Med Chem, 2024)
The source made the active and inactive calls. The rule behind the calls is not given here.

Tested on: BMDM
Experiment: Anti-osteoclastogenic activity in M-CSF/RANKL-induced C57BL/6 mouse BMDM cells assessed as inhibition of M-CSF/RANKL-stimulated osteoclast differentiation at 10 uM measured after 5 days by TRAP staining based microscopic analysis relative to control
Assay type: functional
Set-up: scale not given: the % may be the effect or the level left
Details: time 5 day

Structure (SMILES)	Activity [%]
O=C(O)c1ccccc1SCc1cc(O)nc(O)n1	90
O=C(O)c1ccccc1C(=O)Nc1nc2c(s1)CCCC2	<10
Nc1cccc(-c2cc(C(=O)O)c3ccccc3n2)c1	50
COc1ccc(-c2nc(NC(=O)C3CCCCC3C(=O)O)sc2C)cc1 (configuration not stated)	<10
CCc1ccc(-c2cc(C(=O)O)c3ccccc3n2)cc1	30
NC(Cc1cc(I)c(Oc2cc(I)c(O)c(I)c2)c(I)c1)C(=O)O (configuration not stated) [THYROXINE]	<10
Cc1cc(C(=O)O)ccc1-c1ccc(CO)o1	<10
NCCCC(O)(P(=O)([O-])O)P(=O)(O)O.[Na+] [ALENDRONATE SODIUM]	81
O=C(O)c1cccc(NS(=O)(=O)c2ccc(I)cc2)c1	<10
Cc1cccc(NC(=O)c2ccccc2C(=O)O)c1C	<10
NC(Cc1cc(I)c(Oc2ccc(O)c(I)c2)c(I)c1)C(=O)O (configuration not stated) [RATHYRONINE]	<10
Nc1ccc(-c2cc(C(=O)O)c3ccccc3n2)cc1	<10
Cc1ccc(-c2nc3ccccc3c(C(=O)O)c2C)cc1	<10
O=C(O)c1ccc(N2C(=O)CSC2=S)cc1	79
COc1ccccc1-c1cc(C(=O)O)c2ccccc2n1	<10
Cc1ccc2nc(-c3ccc(Cl)cc3)cc(C(=O)O)c2c1	80
O=C(O)c1ccc2[nH]c(-c3cccc(-c4nc5cc(C(=O)O)ccc5[nH]4)c3)nc2c1	20
CC(C)(C)c1ccc(-c2cc(C(=O)O)c3ccccc3n2)cc1	80

Structure (SMILES)	Activity [%]
Cc1cccc(C)c1NC(=O)c1ccccc1C(=O)O [FTAXILIDE]	80
O=C(O)c1ccccc1C(=O)Nc1nccs1	75
COc1ccc(-c2occ(C(=O)O)c2C(=O)O)cc1	<10
Cc1ccc(-c2cc(C(=O)O)c3ccccc3n2)c(C)c1	<10
CN1C(=O)[C@@H](/N=N/c2ccccc2C(=O)O)N(C)C1=S	50
COc1ccc(-c2cc(C(=O)O)c3ccccc3n2)cc1OC	40
Cn1ncc2c(Nc3ccc(C(=O)O)cc3)ncnc21	50
O=C1NC(=O)C(=NNc2cccc(C(=O)O)c2)C(=O)N1	<10
COc1cccc(-c2cc(C(=O)O)c3ccccc3n2)c1	<10
Cc1ccc(C)c(-c2cc(C(=O)O)c3ccccc3n2)c1	<10
Cc1ccc(-c2cc(C(=O)O)c3cccc(C)c3n2)cc1	<10
O=C(O)c1ccc(-c2cnc3ccccc3n2)cc1	<10
CN(CCCC(=O)O)c1nc(-c2ccc(Br)cc2)cs1	<10
O=C(O)C1OC(Oc2cc3oc(-c4ccc(O)cc4)cc(=O)c3c(O)c2O)C(O)C(O)C1O (configuration not stated)	80
Cc1cc(C)c(S(=O)(=O)Nc2ccc(C(=O)O)cc2)cc1C	<10
Cc1cccc(C(=O)Nc2scc(-c3cccs3)c2C(=O)O)c1	<10
O=C(O)c1cccc(Nc2nc3ccccc3[nH]2)c1	33

Tested on: C3H 10T1/2
Experiment: Induction of osteoblast mineralization in mouse C3H 10T1/2 cells assessed as increase in calcium deposition at 10 uM measured after 14 days by Alizarin Red S staining based analysis
Assay type: functional, cell-based
Details: time 14.0 day

Structure (SMILES)	Activity
O=C(O)c1ccccc1C(=O)Nc1nccs1	Active

Tested on: C3H 10T1/2
Experiment: Induction of osteoblast mineralization in mouse C3H 10T1/2 cells assessed as increase in calcium deposition at 1 uM measured after 14 days by Alizarin Red S staining based analysis
Assay type: functional, cell-based
Details: time 14.0 day

Structure (SMILES)	Activity
O=C(O)c1cc2ccccc2cc1C(=O)Nc1nccs1	Active

Tested on: C3H 10T1/2
Experiment: Anabolic activity in mouse C3H 10T1/2 cells by measuring fold change in osteoblast differentiation at 10 uM incubated for 7 days by ALP staining based analysis
Assay type: functional
Details: time 7 day

Structure (SMILES)	fold change (FC)
O=C(O)c1ccccc1SCc1cc(O)nc(O)n1	8.2
Nc1cccc(-c2cc(C(=O)O)c3ccccc3n2)c1	<2
O=C(O)c1ccc(N2C(=O)CSC2=S)cc1	7.5
Cc1ccc2nc(-c3ccc(Cl)cc3)cc(C(=O)O)c2c1	2.4
CC(C)(C)c1ccc(-c2cc(C(=O)O)c3ccccc3n2)cc1	<2
Cc1cccc(C)c1NC(=O)c1ccccc1C(=O)O [FTAXILIDE]	6
O=C(O)c1ccccc1C(=O)Nc1nccs1	11.4
CN1C(=O)[C@@H](/N=N/c2ccccc2C(=O)O)N(C)C1=S	3.9
Cn1ncc2c(Nc3ccc(C(=O)O)cc3)ncnc21	3.2
O=C(O)C1OC(Oc2cc3oc(-c4ccc(O)cc4)cc(=O)c3c(O)c2O)C(O)C(O)C1O (configuration not stated)	<2

Tested on: BMDM
Experiment: Anti-osteoclastogenic activity in M-CSF/RANKL-induced C57BL/6 mouse BMDM cells assessed as downregulation of CTSK mRNA expression at 1 uM incubated for 7 days by RT-qPCR analysis
Assay type: functional, cell-based
Details: time 7.0 day

Structure (SMILES)	Activity
O=C(O)c1cc2ccccc2cc1C(=O)Nc1nccs1	Active

Tested on: C3H 10T1/2
Experiment: Induction of osteoblastogenesis in mouse C3H 10T1/2 cells assessed as upregulation of SP7 gene expression at 1 uM incubated for 7 days by RT-qPCR analysis
Assay type: functional, cell-based
Details: time 7.0 day

Structure (SMILES)	Activity
O=C(O)c1ccccc1C(=O)Nc1nccs1	Active
O=C(O)c1cc2ccccc2cc1C(=O)Nc1nccs1	Active

Tested on: BMDM
Experiment: Anti-osteoclastogenic activity in M-CSF/RANKL-induced C57BL/6 mouse BMDM cells assessed as downregulation of C-Fos mRNA expression at 1 uM incubated for 7 days by RT-qPCR analysis
Assay type: functional, cell-based
Details: time 7.0 day

Structure (SMILES)	Activity
O=C(O)c1cc2ccccc2cc1C(=O)Nc1nccs1	Active

Tested on: C3H 10T1/2
Experiment: Induction of osteoblast differentiation in mouse C3H 10T1/2 cells at 10 uM incubated for 7 days by ALP staining based analysis
Assay type: functional, cell-based
Details: time 7.0 day

Structure (SMILES)	Activity
O=C(O)c1ccccc1C(=O)Nc1nccs1	Active

Tested on: not listed separately
Experiment: Cytotoxicity against mouse RAW264.7 cells incubated for 48 hrs by CCK-8 assay
Assay type: toxicity, cell-based
Details: not given

Structure (SMILES)	CC50 at 48 h [µM]
Cc1ccc(C(=O)Nc2nccs2)c(C(=O)O)c1	46.9
O=C(Nc1nccs1)c1cccc(F)c1C(=O)O	930
CCOC(=O)c1sc(NC(=O)c2cc3ccccc3cc2C(=O)O)nc1C	506
O=C(O)c1ccccc1C(=O)Nc1ccccn1	3820
O=C(O)c1ccccc1C(=O)Nc1nccs1	178
COC(=O)c1ccccc1C(=O)Nc1nccs1	498
COc1cccc(C(=O)O)c1C(=O)Nc1nccs1	36.3
O=C(O)c1ccccc1C(=O)Nc1nc2ccccc2s1	380
O=C(O)c1cc(Cl)ccc1C(=O)Nc1nc2ccccc2s1	1330
O=C(O)c1cc(Cl)ccc1C(=O)Nc1nccs1	144
O=C(O)c1cc2ccccc2cc1C(=O)Nc1nccs1	490
Cc1csc(NC(=O)c2ccccc2C(=O)O)n1	212

Tested on: C3H 10T1/2
Experiment: Induction of osteoclastogenesis in mouse C3H 10T1/2 cells assessed as upregulation of RANKL gene expression at 1 uM incubated for 7 days by RT-qPCR analysis
Assay type: functional, cell-based
Details: time 7.0 day

Structure (SMILES)	Activity
O=C(O)c1ccccc1C(=O)Nc1nccs1	inactive
O=C(O)c1cc2ccccc2cc1C(=O)Nc1nccs1	inactive

Tested on: BMDM
Experiment: Anti-osteoclastogenic activity in M-CSF/RANKL-induced C57BL/6 mouse BMDM cells assessed as downregulation of TRACP mRNA expression at 1 uM incubated for 7 days by RT-qPCR analysis
Assay type: functional, cell-based
Details: time 7.0 day

Structure (SMILES)	Activity
O=C(O)c1cc2ccccc2cc1C(=O)Nc1nccs1	Active

Tested on: BMDM
Experiment: Anti-osteoclastogenic activity in M-CSF/RANKL-induced C57BL/6 mouse BMDM cells assessed as inhibition of M-CSF/RANKL-stimulated osteoclast differentiation measured after 5 days by TRAP staining based microscopic analysis
Assay type: functional, cell-based
Details: C57BL/6, BMDM, 120 h

Structure (SMILES)	IC50 [µM]
Cc1ccc(C(=O)Nc2nccs2)c(C(=O)O)c1	12.8
O=C(Nc1nccs1)c1cccc(F)c1C(=O)O	3.16
CCOC(=O)c1sc(NC(=O)c2cc3ccccc3cc2C(=O)O)nc1C	2.35
NCCCC(O)(P(=O)([O-])O)P(=O)(O)O.[Na+] [ALENDRONATE SODIUM]	0.39
CCOC(=O)c1sc(NC(=O)c2ccccc2C(=O)O)nc1C	> 33
O=C(Nc1nccs1)c1cccc(O)c1C(=O)O	> 33
O=C(O)c1ccccc1C(=O)Nc1ccccn1	14.4
O=C(O)c1ccccc1C(=O)Nc1nccs1	8.5
COC(=O)c1ccccc1C(=O)Nc1nccs1	28.1
COc1cccc(C(=O)O)c1C(=O)Nc1nccs1	3.94
O=C(O)c1ccccc1C(=O)Nc1nc2ccccc2s1	2.35
O=C(O)c1cc(Cl)ccc1C(=O)Nc1nc2ccccc2s1	3.5
O=C(O)c1cc(Cl)ccc1C(=O)Nc1nccs1	2.02
O=C(O)c1cc2ccccc2cc1C(=O)Nc1nccs1	1.05
Cc1csc(NC(=O)c2ccccc2C(=O)O)n1	12.4

Tested on: C3H 10T1/2
Experiment: Induction of osteoblastogenesis in mouse C3H 10T1/2 cells assessed as upregulation of ALP gene expression at 1 uM incubated for 7 days by RT-qPCR analysis
Assay type: functional, cell-based
Details: time 7.0 day

Structure (SMILES)	Activity
O=C(O)c1ccccc1C(=O)Nc1nccs1	Active
O=C(O)c1cc2ccccc2cc1C(=O)Nc1nccs1	Active

Tested on: C3H 10T1/2
Experiment: Induction of osteoblastogenesis in mouse C3H 10T1/2 cells assessed as upregulation of SPARC gene expression at 1 uM incubated for 7 days by RT-qPCR analysis
Assay type: functional, cell-based
Details: time 7.0 day

Structure (SMILES)	Activity
O=C(O)c1ccccc1C(=O)Nc1nccs1	Active
O=C(O)c1cc2ccccc2cc1C(=O)Nc1nccs1	Active

Tested on: BMDM
Experiment: Anti-osteoclastogenic activity in M-CSF/RANKL-induced C57BL/6 mouse BMDM cells assessed as downregulation of ATP6VOD2 mRNA expression at 1 uM incubated for 7 days by RT-qPCR analysis
Assay type: functional, cell-based
Details: time 7.0 day

Structure (SMILES)	Activity
O=C(O)c1cc2ccccc2cc1C(=O)Nc1nccs1	Active
